Like-named read-outs stand apart in the source and are kept apart here.
Key:
[1] = 24 hours
[2] = diabetic rats; photokinetic delivery (Kulp et al., 2010); cited from earlier work
[3] = 450 nm light pulsed at 100 cps; 24 hours; p<0.05

Which results are given for “Hyaluronic acid [2,100 kDa hyaluronic acid]”?
transdermal flux rate, photokinetic compared to passive permeation control ([1]; 390, 405 and 450 nm at 24 cps and 405 nm at 100 cps, p<0.05): significantly higher than passive permeation control samples; transdermal flux rate, 24 cps compared to 100 cps ([1]; 390 nm, 405 nm and 436 nm light, p<0.05): significantly higher than 390 nm, 405 nm, and 436 nm light pulsed at 100 cps

Which “transdermal permeation flux of HGH, photokinetic compared to passive permeation” value ([1]; 350, 390, 405 and 450 nm at 24 cps, donor 270 ng/ml, p<0.001) does the source give for “HGH: Human growth hormone with a molecular weight of 22,124 Da” here?
The value was “significantly increased”.

For “insulin: insulin, molecular weight of about 5,730 Da”, which blood sugar levels [2] is on record?
Its blood sugar levels is “blood sugar levels were reduced”.

Which “transdermal flux rate, 24 cps compared to 100 cps” value ([1]; 405 nm light, p<0.05) does the source give for “Hyaluronic acid [69 kDa hyaluronic acid]” here?
The value was “significantly higher than 405 nm light pulsed at 100 cps”.

What about the “transdermal flux rate, photokinetic compared to passive permeation” value [1] of the same substance?
Its value is “significantly higher than passive permeation”.

And the “intradermal deposition, photokinetic compared to passive control” value [3]?
Its value is “significantly higher intradermal deposition”.
